Results taken from patent US7704995B2 (Exelixis, Inc., priority 2003, dated 2010).
Read-outs that look alike come from different tables or passages of the source.

Biological target: T1, Chk1 (Homo sapiens, UniProt O14757)
T1 construct: purchased Upstate Biotechnology
T1 sequence (O14757 1-476): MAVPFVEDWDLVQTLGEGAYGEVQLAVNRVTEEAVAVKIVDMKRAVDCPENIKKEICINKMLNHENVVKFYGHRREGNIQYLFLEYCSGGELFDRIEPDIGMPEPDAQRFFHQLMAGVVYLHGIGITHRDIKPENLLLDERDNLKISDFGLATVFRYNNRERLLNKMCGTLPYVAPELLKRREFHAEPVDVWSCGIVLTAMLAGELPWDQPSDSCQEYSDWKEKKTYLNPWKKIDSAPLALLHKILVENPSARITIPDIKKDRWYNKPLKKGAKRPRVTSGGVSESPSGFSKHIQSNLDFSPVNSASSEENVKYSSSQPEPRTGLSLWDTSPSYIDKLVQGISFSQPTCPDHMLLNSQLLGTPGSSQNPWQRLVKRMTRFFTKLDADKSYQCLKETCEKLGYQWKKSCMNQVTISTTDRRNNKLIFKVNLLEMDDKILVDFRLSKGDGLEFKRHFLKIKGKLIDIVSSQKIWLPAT
Assay: Chk1 kinase assay: incorporation of γ-33P ATP into immobilized myelin basic protein
Format: biochemical
Details: read-out: Chk1 IC50
In short: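 Enzyme activity is measured as γ-33P transfer from ATP onto immobilized MBP over 1 h at room temperature, with Chk1 at 10 nM/10 μM unlabeled ATP and Chk2 at 20 nM/30 μM unlabeled ATP. Compounds are tested in 1% DMSO.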

[1] = Table 11, Chk1 only, class symbols A-D

IC50	IC50 (Table 11, Chk1 only)	Structure (SMILES)	further results
1000 to 10000 nM	–	CNC(=O)c1nc(-c2cccc(C(=O)N[C@H](C)c3ccc(OC)cc3)c2)cnc1N [Example 108, 3-amino-N-methyl-6-{3-[({(1R)-1-[4-(methyloxy)phenyl]ethyl}amino)carbonyl]phenyl}pyrazine-2-carboxamide]	–
50 to 1000 nM	–	CNC(=O)c1nc(-c2ccc(OC3CCCCO3)cc2)cnc1N (stereo not drawn) [Example 235, 3-amino-N-methyl-6-[4-(tetrahydro-2H-pyran-2-yloxy)phenyl]pyrazine-2-carboxamide]	–
50 to 1000 nM	–	CNC(=O)c1nc(-c2cccc(CNCc3c(F)cccc3F)c2)cnc1N [Example 402, 3-amino-6-[3-({[(2,6-difluorophenyl)methyl]amino}methyl)phenyl]-N-methylpyrazine-2-carboxamide]	–
–	< 50 nM	Nc1ncc(-c2cccc(CN[C@H]3CCc4ccccc43)c2)nc1-c1nc(-c2cccnc2)n[nH]1 [Example 596, 5-(3-{[(1S)-2,3-dihydro-1H-inden-1-ylamino]methyl}phenyl)-3-(3-pyridin-3-yl-1H-1,2,4-triazol-5-yl)pyrazin-2-amine]	–
1000 to 10000 nM	–	CNC(=O)c1nc(-c2cccc(C(=O)Nc3ccc(C)cc3)c2)cnc1N [Example 221, 3-amino-N-methyl-6-(3-{[(4-methylphenyl)amino]carbonyl}phenyl)pyrazine-2-carboxamide]	–
50 to 1000 nM	–	CNC(=O)c1nc(-c2cccc(CNCc3cccc(-c4ccccc4)c3)c2)cnc1N [Example 384, 3-amino-6-(3-{[(biphenyl-3-ylmethyl)amino]methyl}phenyl)-N-methylpyrazine-2-carboxamide]	–
–	1000 to 10000 nM	Nc1ncc(-c2cccc(C(=O)NCc3ccccc3)c2)nc1C(=O)NCCCNC(=O)c1ccco1 [Example 648, 3-amino-N-{3-[(furan-2-ylcarbonyl)amino]propyl}-6-(3-{[(phenylmethyl)amino]carbonyl}phenyl)pyrazine-2-carboxamide]	–
–	–	Nc1ncc(-c2cccc(CNC(=O)Nc3ccc(Cl)cc3)c2)nc1C(=O)N[C@H]1CCCNC1 [Example 971, 3-amino-6-{3-[({[(4-chlorophenyl)amino]carbonyl}amino)methyl]phenyl}-N-[(3S)-piperidin-3-yl]pyrazine-2-carboxamide]	IC50 [1]: < 50 nM
–	≥ 10000 nM	CC(C)(C)OC(=O)N1CCCC(NC(=O)c2nc(-c3cccc(C(=O)N[C@H]4CCc5ccccc54)c3)cnc2N)CC1 (stereo partly drawn) [Example 770, 1,1-dimethylethyl 4-({[3-amino-6-(3-{[(1S)-2,3-dihydro-1H-inden-1-ylamino]carbonyl}phenyl)pyrazin-2-yl]carbonyl}amino)azepane-1-carboxylate]	–
50 to 1000 nM	–	CNC(=O)c1nc(-c2cccc(C(=O)NCc3ccc(F)cc3F)c2)cnc1N [Example 226, 3-amino-6-[3-({[(2,4-difluorophenyl)methyl]amino}carbonyl)phenyl]-N-methylpyrazine-2-carboxamide]	–
–	–	Nc1ncc(-c2cccc(OCCO)c2)nc1C(=O)N[C@H]1CCCNC1 [Example 904, 3-amino-6-{3-[(2-hydroxyethyl)oxy]phenyl}-N-[(3S)-piperidin-3-yl]pyrazine-2-carboxamide]	IC50 [1]: < 50 nM
–	1000 to 10000 nM	C/C(=N\N(C)c1ccccc1)c1nc(-c2cccc(C(=O)NCc3ccccc3)c2)cnc1N [Example 604, 3-{5-amino-6-[(1E)-N-methyl-N-phenylethanehydrazonoyl]pyrazin-2-yl}-N-(phenylmethyl)benzamide]	–
–	1000 to 10000 nM	Cc1nccc(-c2nc(-c3cccc(C(=O)NCc4ccccc4)c3)cnc2N)n1 [Example 656, 3-[5-amino-6-(2-methylpyrimidin-4-yl)pyrazin-2-yl]-N-(phenylmethyl)benzamide]	–
–	1000 to 10000 nM	Cc1nc(-c2nc(-c3cccc(C(=O)NCc4ccccc4)c3)cnc2N)nn1-c1ccccn1 [Example 702, 3-[5-amino-6-(5-methyl-1-pyridin-2-yl-1H-1,2,4-triazol-3-yl)pyrazin-2-yl]-N-(phenylmethyl)benzamide]	–
1000 to 10000 nM	–	CNC(=O)c1nc(-c2cccc(C(=O)NC(C)(C)C)c2)cnc1N [Example 139, 3-amino-6-(3-{[(1,1-dimethylethyl)amino]carbonyl}phenyl)-N-methylpyrazine-2-carboxamide]	–
